Reference: patent publication US7696174B2, “Short bio-active peptides for cellular and immunological modulation” (Helix Biomedix, Inc., priority 2007, dated 2010)
Entries after “also recorded” stand apart in the source; their conditions may differ. Where two headings read alike, the source gives them in different places.

Key:
[1] = tested on: UVB-induced IL6 expression in human skin epithelial cells (ATCC CRL-2592); assay: UVB-induced IL6 expression in skin epithelial cells (ELISA); assay type: cell-based; conditions: for IL6 (OD 450): UVB 35 seconds, then 40 μg/mL peptide for twenty hours, UV only 0.7305, control 0.0730
Experimental: FIG. 3: Effect of short peptides on UVB-induced IL6 expression in skin epithelial cells. Cells were exposed to UVB irradiation for 35 seconds, after which cells were incubated in complete medium (no serum) with 40 μg/mL peptide [HB-107 (SEQ ID NO:1), HB-802 (SEQ ID NO:12), HB-1410 (SEQ ID NO:15), HB-801 (SEQ ID NO:31)] for twenty hours. IL6 expression was then measured by ELISA. Refer to Example 4.
An assay was performed to determine whether peptide fragments of HB-107 can induce anti-inflammatory activity in cells exposed to ultraviolet light. Human skin epithelial cells (ATCC CRL-2592) were seeded into 6-well plates and grown to more than 95% confluence in DMEM with 4 mM L-glutamine adjusted to contain 1.5 g/L sodium bicarbonate and 4.5 g/L glucose (complete medium) supplemented with 10% fetal bovine serum. The cells were serum starved for 5 hours prior to UVB treatment. UVB was generated using a UVLMS lamp (4W model, 3UV assembly, Upland, Calif.) with the irradiation wavelength set at 302 nm. The UV lamp was placed 12 cm above the tissue culture plate (6-well plate) and two wells were treated at one time to allow homogenous UVB irradiation. Cells were exposed to UVB irradiation (450 μW/cm^2, measured using a radiometer) in PBS to avoid ultraviolet light-induced generation of toxic photochemicals. IL6 expression was measured as an indicator of cell inflammatory activity in response to UVB.
Individual peptides were screened to determine the effects thereof on UVB-induced IL6 expression in skin epithelial cells. Cells were exposed to UVB (450 μW/cm^2) for 35 seconds in PBS, after which the PBS was replaced with complete medium without serum in the presence or absence of 40 μg/ml peptide and incubated at 37 degrees C./5% CO2 for twenty hours. The supernatant media was then collected and centrifuged at 10,000 rpm to remove debris, prior to ELISA for human IL6 (CellSciences, Mass.).

[2] = tested on: IL6 expression in epithelial cells; assay: Repression of IL6 expression in resting epithelial cells; assay type: cell-based; conditions: for % Change in IL6 expression / Change in IL6 versus PBS control: 20 μg/mL peptide
Source text: The protocol for this assay is standard and described by Murakami et al. (2004, J. Immunol. 172:[…]), the article of which is incorporated herein by reference in its entirety.

[3] = tested on: human epidermal keratinocyte; assay: Keratinocyte cell migration assay (tissue culture scratch test); assay type: cell-based
Source text: Cell proliferation alone is not sufficient to aid in wound healing. Upon sustaining an injury, cells bordering the wound proliferate; the migration of such newly formed cells to close the injury (or chronic lesion of older, dysfunctional tissue) is of equal importance. To address this issue, HB-107 and peptide fragments thereof were examined using a keratinocyte cell migration assay based on a simple tissue culture scratch test. […] The protocol for this assay is standard and has been described by Shanley et al. (2004, Invest. Ophthalmol. Vis. Sci. 45:1088-1094), the article of which is herein incorporated by reference in its entirety.

[4] = tested on: PAM 212 murine epidermal keratinocyte; assay: Cell proliferation assay, PAM 212 murine epidermal keratinocytes; assay type: cell-based; conditions: for cell proliferation as a percent of control cell proliferation: control = cells treated with PBS only; for cell proliferation activity (in words): epidermal keratinocytes
Experimental: To examine this question, an overlapping set of peptide fragments of HB-107 was generated using standard solid phase peptide chemistry. These peptides were then assayed for cell proliferation activity at concentrations of 0.22, 2.15, 21.5 and 46.4 μg/mL.
The cell proliferation assays proceeded from the following experimental protocol:
Cell Proliferation Assay Using a Mouse Keratinocyte Cell Line.
OBJECTIVE: To determine the anti-proliferative or cytotoxic potential of a test article when applied to epidermal keratinocytes in culture.
TEST SYSTEM: Either the murine keratinocyte cell line PAM212 or primary Normal Human Epidermal Keratinocytes (NHEK, from Clonetics) are preferred models, although other cells may be used.
Keratinocytes are examined microscopically daily. As the culture becomes 50-75% confluent, the media in the plate is aspirated and 0.25% trypsin/EDTA is added (0.05% trypsin for human cells). When the cells become rounded, the trypsin is neutralized by addition of an equal volume of DMEM or KBM supplemented with approximately 10% bovine serum or by using trypsin neutralizing solution (TNS, from Clonetics). Cells are then centrifuged and the pellet is resuspended in 1 ml of DMEM-1 or KBM. A hemacytometer is used to count the cell suspension and the total number of cells/mL is adjusted to 1.5-2.5×10^4 cells/mL with DMEM-1 or KBM. Cells are then plated in 96-well plates at a concentration of 3.0-5.0×10^3 cells/well by adding 200 μL of the cell suspension to each well. Typically, the central 60 wells are used and the outer wells are filled with DMEM or PBS to minimize evaporation effects.
A stock solution of the test article is prepared using DMEM-1 or KBM, and all other dilutions are henceforth prepared from this solution. Typically, each dilution is filtered through an 0.2-μm filter before application to the cell culture. A 1.0% (w/v or v/v) solution or suspension is prepared, and 10-fold or 3-fold serial dilutions are made in culture medium.
The cells are examined 18-24 hours after plating to ensure cell attachment and division, and then 100 μL of the media is aspirated, leaving behind 100 μL in each well. Then 100 μL of a 2× concentration of each test article dilution is added to the replicate wells. For the negative control, 100 μL of the vehicle media (DMEM-1 or KBM) is added to the control wells. The microplate is then incubated at 37 degrees C. and 5.0% CO2 for 48-72 hours after dosing, and cells are allowed to proliferate undisturbed. Following this 48-72 hour exposure, all media is aspirated and proliferation is assessed by one of the below methods.
Option A: neutral red uptake. After exposure and aspiration of media, 200 μL of neutral red media is immediately added to each well. The microplate is returned to the incubator for an additional three hours. Following this dye uptake period, the microplate is removed from the incubator and gently inverted, and the neutral red media is decanted into a collection pan. The cells are then fixed with fixing solution for approximately one minute. The fixing solution is decanted off, and the microplate is washed gently three times with washing solution. The washing solution is decanted, and 200 μL of lysing solution is added. After at least 15 minutes, the contents of each well are re-pipetted to ensure even color distribution in each well, and an aliquot is read on the spectrophotometer as detailed below.
Option B: MTT conversion assay. After exposure and aspiration of media, 200 μL of MTT assay media is immediately added to each well. […] The microplate is returned to the incubator for an additional three hours. Following this dye uptake period, the microplate is removed from the incubator and gently inverted, and the MTT media is decanted into a collection pan. The cells are then washed gently three times with washing solution. The washing solution is decanted, and 200 μL of lysing solution is added. […]

[5] = Lee et al., 2004; cited from earlier work
[6] = compared with cecropin B; cited from earlier work
[7] = 24 hr after addition of 20 μg/mL peptide
[8] = 48 hr after addition of 20 μg/mL peptide

Row | Substance | IL6 (OD 450) [1] [OD 450] | amount of IL6, Average [2, 7] [pg/mL] | amount of IL6, Well 1 [2, 7] [pg/mL] | amount of IL6, Well 2 [2, 7] [pg/mL] | % Change in IL6 expression ([2]; 24 hr) [%] | Change in IL6 versus PBS control ([2]; 24 hr) | amount of IL6, Average [2, 8] [pg/mL] | amount of IL6, Well 1 [2, 8] [pg/mL] | amount of IL6, Well 2 [2, 8] [pg/mL] | % Change in IL6 expression ([2]; 48 hr) [%] | Change in IL6 versus PBS control ([2]; 48 hr) | cell proliferation as a percent of control cell proliferation ([4]; 0.22 μg/mL peptide) [%] | cell proliferation as a percent of control cell proliferation ([4]; 2.15 μg/mL peptide) [%] | cell proliferation as a percent of control cell proliferation ([4]; 21.5 μg/mL peptide) [%] | cell proliferation as a percent of control cell proliferation ([4]; 46.4 μg/mL peptide) [%] | cell proliferation activity (in words) [4] | further results
1 | MPKEKVFLKIEKMGRNIRN (listed as Hyalophora cecropia) [HB-107, parent peptide, a fragment of cecropin B, an antimicrobial protein present in a species of moth, reference compound] | 0.7315 | 286.065 | 307.58 | 264.55 | −11.60 | −37.435 | 738.35 | 690.58 | 786.12 | −24.30 | −236.685 | 57 | 75 | 121 | 126 | – | percent closure of the scratch compared to initial width ([3]; 6 hr exposure to peptide): 52%; percent closure of the scratch compared to initial width ([3]; 10 hr exposure to peptide): 78%; wound healing in vivo (in words) [5]: does display epidermal wound healing qualities; also recorded: stimulate wound healing in vivo; bacteriostatic effects (in words) [6]: does not display the bacteriostatic effects
2 | MPKEK (listed as Hyalophora cecropia) [HB-802, fragment of HB-107] | 0.6500 | 283.485 | 278.32 | 288.65 | −12.50 | −40.435 | 768.045 | 774.07 | 762.02 | −21.20 | −206.99 | 121 | 130 | 135 | 133 | can induce cell proliferation | IL6 reduction / anti-inflammatory activity in resting cells (in words) [2]: decrease the level of IL6 expression to the same degree as the HB-107 parent peptide; also recorded: ability to reduce IL6 in resting cells; IL6 reduction / anti-inflammatory activity in resting cells (in words) ([2]; listed as SEQ ID:12): displays both proliferative and anti-inflammatory activities
3 | PKEKV (listed as Hyalophora cecropia) [HB-801, fragment of HB-107] | 0.8275 | – | – | – | – | – | – | – | – | – | – | 101 | 100 | 113 | 131 | can induce cell proliferation | –
4 | PKEK (listed as Hyalophora cecropia) [HB-1410, fragment of HB-107] | 0.5105 | – | – | – | – | – | – | – | – | – | – | – | – | – | – | – | reduction of UVB-induced IL6 / anti-inflammatory activity (in words) [1]: capable of significantly reducing the level of IL6; reduction of UVB-induced IL6 / anti-inflammatory activity (in words) ([1]; listed as SEQ ID NO:15): having anti-inflammatory activity
